test: logP determination through HPLC (EEC directive 79/831 Annex V. A8); assay type: physicochemical; conditions: not given

SMILES	logP
CC(Nc1c(-c2ncncc2F)c(Cl)nc2c(C#N)cnn12)C(C)(C)C (stereo not shown) [Example 56]	3.29
CCCN(CC1CC1)c1c(-c2cc(Cl)sc2Cl)c(Cl)nc2c(C#N)cnn12 [Example 20]	5.78
CC(C)CNc1c(-c2cc(Cl)sc2Cl)c(Cl)nc2c(C#N)cnn12 [Example 9]	4.82
N#Cc1cnn2c(NCC(F)(F)F)c(-c3cc(Cl)sc3Cl)c(Cl)nc12 [Example 30]	4.06
COCCN(C)c1c(-c2cc(Cl)sc2Cl)c(Cl)nc2c(C#N)cnn12 [Example 18]	4.32
N#Cc1cnn2c(N3CCOCC3)c(-c3cc(Cl)sc3Cl)c(Cl)nc12 [Example 28]	3.85
COC(=O)c1cnn2c(NC(C)C(C)(C)C)c(-c3ncncc3F)c(Cl)nc12 (stereo not shown) [Example 64]	3.15
CCC(C)Nc1c(-c2cc(Cl)sc2Cl)c(Cl)nc2c(C#N)cnn12 (stereo not shown) [Example 10]	4.82
N#Cc1cnn2c(N3CCC(F)(F)CC3)c(-c3ccsc3)c(Cl)nc12 [Example 36]	3.61
CC(Nc1c(-c2cc(Cl)sc2Cl)c(Cl)nc2c(C#N)cnn12)C(F)(F)F (single isomer, unassigned) [Example 31]	4.46
CC(C)C(C)Nc1c(-c2cc(Cl)sc2Cl)c(Cl)nc2c(C#N)cnn12 (stereo not shown) [Example 24]	5.19
CC(Nc1c(-c2ncncc2F)c(Cl)nc2c(Cl)cnn12)C(C)(C)C (stereo not shown) [Example 59]	4.11
CC(Nc1c(-c2ncncc2F)c(Cl)nc2ccnn12)C(C)(C)C (stereo not shown) [Example 60]	3.42
CC(C)C(C)Nc1c(-c2ncncc2Cl)c(Cl)nc2c(C#N)cnn12 (stereo not shown) [Example 4]	3.13
CC(C)C(C)Nc1c(-c2ncncc2F)c(Cl)nc2ccnn12 (stereo not shown) [Example 61]	2.98
CC(C)CN(C)c1c(-c2cc(Cl)sc2Cl)c(Cl)nc2c(C#N)cnn12 [Example 12]	5.31
CC(Nc1c(-c2ncncc2Cl)c(Cl)nc2c(C#N)cnn12)C(C)(C)C (stereo not shown) [Example 3]	3.54

SMILES	logP
CC(Nc1c(-c2ncncc2F)c(Cl)nc2c(C#N)cnn12)C(F)(F)F (stereo not shown) [Example 58]	2.65
CC1CN(c2c(-c3cc(Cl)sc3Cl)c(Cl)nc3c(C#N)cnn23)CC(C)O1 (stereo not shown) [Example 27]	4.72
CC(C)Nc1c(-c2cc(Cl)sc2Cl)c(Cl)nc2c(C#N)cnn12 [Example 11]	4.41
CC1CCCN1c1c(-c2ncncc2Cl)c(Cl)nc2c(C=O)cnn12 (stereo not shown) [Example 54]	2.44
COCCNc1c(-c2cc(Cl)sc2Cl)c(Cl)nc2c(C#N)cnn12 [Example 17]	3.90
N#Cc1cnn2c(N3CCCCC3)c(-c3cc(Cl)sc3Cl)c(Cl)nc12 [Example 23]	6.19
CN(CCC#N)c1c(-c2cc(Cl)sc2Cl)c(Cl)nc2c(C#N)cnn12 [Example 19]	3.90
CC(C)C(C)Nc1c(-c2ncncc2F)c(Cl)nc2c(C#N)cnn12 (stereo not shown) [Example 57]	2.92
CC(Nc1c(-c2ncncc2Cl)c(Cl)nc2c(C=O)cnn12)C(C)(C)C (stereo not shown) [Example 62]	3.12
CC(Nc1c(-c2ncncc2Cl)c(Cl)nc2c(Cl)cnn12)C(C)(C)C (stereo not shown) [Example 5]	4.36
CC(C)CC(C)Nc1c(-c2cc(Cl)sc2Cl)c(Cl)nc2c(C#N)cnn12 (stereo not shown) [Example 29]	5.59
CC1CCN(c2c(-c3ncncc3F)c(Cl)nc3c(C#N)cnn23)CC1 [Example 63]	3.20
CC(C)(C)CNc1c(-c2cc(Cl)sc2Cl)c(Cl)nc2c(C#N)cnn12 [Example 15]	5.31
N#Cc1cnn2c(N3CCC(C(F)(F)F)CC3)c(-c3ccsc3)c(Cl)nc12 [Example 53]	4.03
N#Cc1cnn2c(N3CCCC3)c(-c3cc(Cl)sc3Cl)c(Cl)nc12 [Example 21]	4.61
CC(Nc1c(-c2ncncc2Cl)c(Cl)nc2c(C=O)cnn12)C(F)(F)F (single isomer, unassigned) [Example 55]	2.46

same assay, conditions: HPLC, gradient method, acetonitrile/0.1% aqueous phosphoric acid

SMILES	logP	chromatographic logP
N#Cc1cnn2c(NC3CCCC3)c(-c3cc(Cl)sc3Cl)c(Cl)nc12 [Example 16]	5.03	–
CC(C)Nc1c(-c2ccsc2)c(Cl)nc2c(C#N)cnn12 [Example 39]	3.37	–
CCC(C)Nc1c(-c2ccsc2)c(Cl)nc2c(C#N)cnn12 (stereo not shown) [Example 38]	3.74	–
CC1CCN(c2c(-c3ncncc3Cl)c(Cl)nc3c(C=O)cnn23)CC1 [Example 74, 5-chloro-6-(5-chloro-pyrimidin-4-yl)-3-formyl-7-(4-methyl-piperidin-1-yl)-pyrazolo[1,5-a]-pyrimidine]	–	3.04
N#Cc1cnn2c(N3CCCCC3)c(-c3ccsc3)c(Cl)nc12 [Example 49]	3.58	–
N#Cc1cnn2c(NCC(F)(F)F)c(-c3ccsc3)c(Cl)nc12 [Example 8]	3.21	–
N#Cc1cnn2c(Cl)c(-c3ncccc3C(F)(F)F)c(Cl)nc12 [Example 65, 3-cyano-5,7-dichloro-6-(3-trifluoromethyl-pyridin-2-yl)-pyrazolo-[1,5-a]pyrimidine]	–	2.68
CC(C)(C)CNc1c(-c2ccsc2)c(Cl)nc2c(C#N)cnn12 [Example 32]	4.18	–
CC1CCN(c2c(-c3ccsc3)c(Cl)nc3c(C#N)cnn23)CC1 [Example 43]	4.41	–
CC(C)C(C)Nc1c(-c2ccsc2)c(Cl)nc2c(C#N)cnn12 (stereo not shown) [Example 34]	4.08	–
COCCNc1c(-c2ccsc2)c(Cl)nc2c(C#N)cnn12 [Example 45]	2.94	–
N#Cc1cnn2c(N3CCOCC3)c(-c3ccsc3)c(Cl)nc12 [Example 44]	2.90	–
CC(C)CN(C)c1c(-c2ccsc2)c(Cl)nc2c(C#N)cnn12 [Example 40]	4.13	–
CC(C)CC(C)Nc1c(-c2ccsc2)c(Cl)nc2c(C#N)cnn12 (stereo not shown) [Example 6]	4.46	–
CC1CN(c2c(-c3ccsc3)c(Cl)nc3c(C#N)cnn23)CC(C)O1 (stereo not shown) [Example 48]	3.53	–
N#Cc1cnn2c(NC3CCCC3)c(-c3ccsc3)c(Cl)nc12 [Example 33]	3.00	–
CCN(CCC#N)c1c(-c2ccsc2)c(Cl)nc2c(C#N)cnn12 [Example 52]	2.98	–
C=Cc1cnn2c(N3CCC(C)CC3)c(-c3ncncc3Cl)c(Cl)nc12 [Example 75]	–	4.7
CC(C)CNc1c(-c2ccsc2)c(Cl)nc2c(C#N)cnn12 [Example 37]	3.78	–
N#Cc1cnn2c(N3CCCC3)c(-c3ccsc3)c(Cl)nc12 [Example 41]	3.53	–
CCCN(CC1CC1)c1c(-c2ccsc2)c(Cl)nc2c(C#N)cnn12 [Example 47]	4.51	–
CC(Nc1c(-c2ccsc2)c(Cl)nc2c(C#N)cnn12)C(F)(F)F (stereo not shown) [Example 7]	3.53	–
CC1CCCCN1c1c(-c2ccsc2)c(Cl)nc2c(C#N)cnn12 (stereo not shown) [Example 42]	4.27	–
COCCN(C)c1c(-c2ccsc2)c(Cl)nc2c(C#N)cnn12 [Example 51]	3.17	–
N#Cc1cnn2c(O)c(-c3ncccc3C(F)(F)F)c(O)nc12 [Example 68, 3-cyano-6-(3-trifluoromethyl-pyridin-2-yl)-pyrazolo[1,5-a]pyrimidin-5,7-diol]	–	0.29

Reference: patent US20070037828A1, “Pyrazolopyrimidines” (priority 2003, published 2007)
